Data set [1] deals with MUC5A/C secretion in hCLCA1 expressing H292 cells. In words: MUC5A/C secretion by ELLA in hCLCA1 expressing H292 cells. The class given is cell-based, human. Further details: key to ELLA: (+) = inhibition; (−) = no inhibition.
The subject of data set [2] is H292 clone 15 cells. In words: ELLA for MUC5AC, H292 clone 15 cells (Example 11). The class given is cell-based, human. Particulars: Homo sapiens, NCI-H292; MUC5AC in conditioned media; 48 hours; average of 3 experiments. The protocol:
ELLA (Enzyme-Linked Lectin Assay) was used to determine the inhibitory effect of compounds on mucus production by H292 clone 15 cells. H292 clone 15 cells, a subclone from human pulmonary mucoepidermoid carcinoma cells overexpressing hCLCA1, were grown to confluent, followed by incubation with increasing concentrations of compounds for 48 hours. Conditioned media were collected and MUC5AC (the major secretory mucin in lungs) content was determined by ELLA measurement as described below. 96 well microtiter plates were coated with a mouse monoclonal antibody against human MUC5AC (1-13M1, NeoMarkers), then incubated with test conditioned media. Bound MUC5AC was detected by horseradish peroxidase-conjugated soybean lectin that has a high affinity towards highly-glycosylated proteins such as MUC5AC. Conversion of peroxidase substrate TMB (Tetramethylbenzidine Base) was quantified by reading at 450 nm. O.D. (optical density) readings were plotted against concentrations of compounds. Linear regression was used to derive the concentration at which O.D. was reduced by 50% (IC50) when compared to vehicle-treated cells.

Data set [3] has as its system H292 clone 15 cells. In words: Alamar Blue cytotoxicity. Particulars: H292 clone 15 cells; 48 hours; average of 3 experiments. For orientation: Alamar Blue is a resazurin reagent that responds to reducing activity.
Data set [4] deals with activated Caco2 cells. In words: PAS staining for mucin in activated Caco2 cells.
The subject of data set [5] is activated Caco2 cells. Particulars: Caco-2.
The next data set has as its system NCI-H292/hCLCA1 cells. In words: AB/PAS staining of mucous glycoconjugates in NCI-H292/hCLCA1 cells. Type of data set: cell-based, human. Particulars: NFA 100 μM, MFA 125 or 250 μM, talniflumate 12.5, 25 or 50 μM; vs untreated cells. The protocol:
For the determination of mucous glycoconjugate production, NCI-H292/ctl and NCI-H292/hCLCA1 (AAF 15) cells were cultured in 24-well plates for 3 days. Cells were then fixed with Formalin and mucous glycoconjugates were visualized by AB/PAS staining (Sigma). […] For chloride channel blockage studies, cells were cultured in the presence of niflumic acid (NFA) (Sigma) at 100 μM concentration, mefanamic acid (MFA) at 125 or 250 μM or talniflumate at 12.5, 25 or 50 μM, or media alone.
For the determination of mucous glycoconjugate production, NCI-H292/hCLCA1 cells were cultured in 24-well plates for 3 days with at concentrations of 0 to 150 μM of the talniflumate enantiomers or media alone (control). Cells were then fixed with Formalin and mucous glycoconjugates were visualized by AB/PAS staining (Sigma). […] In this assay both enantiomers were seen to inhibit muco-glycoconjugate production at concentrations>40 μM.

Data set [6] deals with murine chloride channel, mCLCA1. Put plainly: Patch clamp chloride current, HEK293 cell expressing mCLCA1. Type of data set: cell-based. Particulars: for Chloride Current: + ionomycin + Ca. The protocol:
A HEK293 cell transfected with a plasmid expressing a murine chloride channel, mCLCA1, was patch clamped and chloride current was measured over a range of voltages (V, left column) and the results are shown in Table 3 below. Each row lists currents invoked at a particular positive voltage in the absence (−) or presence (+) of ionomycin and calcium, and in the presence of an indicated concentration of diclofenac (μM). Substantial current was invoked by the addition of 2 μM ionomycin and 2 mM calcium-compare the first two columns-indicating activation of mCLCA1 by the ionomycin/calcium treatment. For example, at 100 mV of positive voltage, the chloride current was increased from 39 nA/pF to 105 nA/pF.
Background: In patch-clamp work, channel activity is measured electrically.

Read-outs that look alike come from different tables or passages of the source.

Take `O=C1OC(OC(=O)c2cccnc2Nc2cccc(C(F)(F)F)c2)c2ccccc21` (single isomer, unassigned; enantiomer 1) [enantiomer 1]: the “IC50, inhibition of MUC5A/C secretion” value in data set [1] (NCI-H292/hCLCA1 cells, 0 through 150 μM, 48 hours, FIG. 26) was “not inhibitory”.
Regarding `O=C1OC(OC(=O)c2cccnc2Nc2cccc(C(F)(F)F)c2)c2ccccc21` (single isomer, unassigned; enantiomer 2) [enantiomer 2], in data set [1] (NCI-H292/hCLCA1 cells, 0 through 150 μM, 48 hours, FIG. 26, read-out: IC50, inhibition of MUC5A/C secretion), the IC50 is 40000 nM.
`COC(=O)c1cccnc1Nc1cccc(C(F)(F)F)c1` [1 (MSI 2213), Niflumic acid methyl ester]: in data set [1] (Table 2, mucin production), the ELLA entry is listed as “−”.
On to `O=C(CC1OC(=O)c2ncccc21)c1cccnc1Nc1cccc(C(F)(F)F)c1` (stereo not shown) [Compound 1], for which the IC50 in the data set with H292 clone 15 cells [2] worked out at 2000 nM. Besides, the “Est. LD50 (Alamar Blue)” value in the data set on H292 clone 15 cells [3] was found to be 11 µM.
Take `COC(=O)c1ccccc1/C=C/C(=O)c1cccnc1Nc1cccc(C(F)(F)F)c1` [Compound 2]: the IC50 with H292 clone 15 cells [2] was 4000 nM. In addition, in the data set on H292 clone 15 cells [3], the “Est. LD50 (Alamar Blue)” value was 16 µM.
The like results for `Cc1c(Cl)cccc1Nc1ccccc1C(=O)CC1OC(=O)c2ccccc21` (stereo not shown) [Compound 3] were, in that order, 1200 nM and 19 µM.
In the same order, the values of `Cc1c(Cl)cccc1Nc1ccccc1C(=O)CCc1ccccc1C(=O)O` [Compound 4] are 1600 nM and 27 µM.
Regarding `Cc1cccc(Nc2ccccc2C(=O)CC2OC(=O)c3ccccc32)c1C` (stereo not shown) [Compound 5], the IC50 in the data set on H292 clone 15 cells [2] is 4000 nM. Besides, the “Est. LD50 (Alamar Blue)” value in the data set on H292 clone 15 cells [3] turned out to be 35 µM.
The like results for `Cc1cccc(Nc2ccccc2C(=O)CCc2ccccc2C(=O)O)c1C` [Compound 6] were, in that order, 3000 nM and 27 µM.
The like results for `O=C(CC1OC(=O)c2ccccc21)c1ccccc1Nc1cccc(C(F)(F)F)c1` (stereo not shown) [Compound 7] were, in that order, 24000 nM and 69 µM.
In the same order, the values of `O=C(O)c1ccccc1CCC(=O)c1ccccc1Nc1cccc(C(F)(F)F)c1` [Compound 8] are 10000 nM and 30 µM.
`O=C1OC(CC(=O)c2cccnc2Oc2ccccc2)c2ccccc21` (stereo not shown) [Compound 9] displayed an IC50 in the data set on H292 clone 15 cells [2] of 5000 nM. The “Est. LD50 (Alamar Blue)” value in the data set with H292 clone 15 cells [3] was determined as 43 µM.
For the molecule `O=C(O)c1ccccc1CCC(=O)c1cccnc1Oc1ccccc1` [Compound 10], the IC50 in the data set on H292 clone 15 cells [2] is 44000 nM. Also, in the data set on H292 clone 15 cells [3], the “Est. LD50 (Alamar Blue)” value came to 885 µM.
The like results for `O=C1OC(CC(=O)c2cccnc2Oc2cccc(Cl)c2)c2ccccc21` (stereo not shown) [Compound 11] were, in that order, 2000 nM and 23 µM.
The like results for `O=C1OC(CC(=O)c2cccnc2Oc2ccc(F)cc2F)c2ccccc21` (stereo not shown) [Compound 12] were, in that order, 1900 nM and 22 µM.
The like results for `O=C1OC(CC(=O)c2cccnc2Oc2cccc(Cl)c2Cl)c2ccccc21` (stereo not shown) [Compound 13] were, in that order, 1000 nM and 10 µM.
As to `O=C1OC(CC(=O)c2cccnc2Oc2cccc(Br)c2)c2ccccc21` (stereo not shown) [Compound 14], in the data set on H292 clone 15 cells [2], the IC50 came to 2300 nM. Also, the “Est. LD50 (Alamar Blue)” value with H292 clone 15 cells [3] was found to be 16 µM.
The like results for `O=C(CC1OC(=O)c2ccccc21)c1ccccc1Sc1ccccc1Cl` (stereo not shown) [Compound 15] were, in that order, 2500 nM and 15 µM.
Consider `O=S(=O)(O)c1cc(N=C=S)ccc1C=Cc1ccc(N=C=S)cc1S(=O)(=O)O` [DIDS, 4,4′-diisothiocyanostilbene-2,2′-disulfonic acid], for which, in the data set with activated Caco2 cells [4] (activated Caco2 cells, 100 μm for NFA and 300 μm for DIDS, vs untreated cells), the “PAS positive staining mucin glycoconjugates” value is listed as “significantly fewer positive staining mucin glycoconjugates”.
As for `O=C(O)c1ccccc1Nc1cccc(C(F)(F)F)c1` [Flufenamate], the “Mucin production by activated Caco2 cells” value in the data set with activated Caco2 cells [5] is “inhibited”.
With `Cc1ccc(Cl)c(Nc2ccccc2C(=O)O)c1Cl` [Meclofenamate], the “Mucin production by activated Caco2 cells” value in the data set on activated Caco2 cells [5] is “partially”.
As to `Cc1cccc(Nc2ccccc2C(=O)O)c1C` [Mefenamate], the “PAS positive staining muco-glycoconjugates” value with NCI-H292/hCLCA1 cells is on record as “significantly fewer positive staining muco-glycoconjugates”. Also, in the data set on activated Caco2 cells [5], the “Mucin production by activated Caco2 cells” value is “partially”.
On to `COc1ccc2cc([C@H](C)C(=O)O)ccc2c1` [Naproxen], for which the “Mucin production by activated Caco2 cells” value in the data set on activated Caco2 cells [5] is listed as “ineffective”.
As to `CS(=O)(=O)Nc1ccc([N+](=O)[O-])cc1Oc1ccccc1` [Nimesulide], the “Inhibition of MUC5A/C secretion / mucin production (figure legends)” value in data set [1] (hCLCA1 expressing H292 cells, 48 hours) is reported as “inhibition of MUCSA/C secretion”.
In the case of `CC1=C(CC(=O)O)c2cc(F)ccc2/C1=C\c1ccc([S+](C)[O-])cc1` (stereo not shown) [Sulindac], the “Mucin production by activated Caco2 cells” value in the data set on activated Caco2 cells [5] is on record as “ineffective”.
Turning to `Cc1c(Cl)cccc1Nc1ccccc1C(=O)O` [Tolfenamate], the “Mucin production by activated Caco2 cells” value with activated Caco2 cells [4] (FIG. 2) is “inhibited”.
With `O=C(O)Cc1ccccc1Nc1c(Cl)cccc1Cl` [diclofenac], the “Inhibition of chloride channel activity” value in data set [6] (diclofenac 5 μM to 50 μM) was “did not inhibit chloride channel activity”. For the same molecule, the “Chloride Current” value in data set [6] (diclofenac 5 μM, 0 mV) stood at 20 nA/pF; in data set [6] (diclofenac 5 μM, 20 mV), 36 nA/pF; in data set [6] (diclofenac 5 μM, 40 mV) it was 53 nA/pF; in data set [6] (diclofenac 5 μM, 60 mV), 72 nA/pF; in data set [6] (diclofenac 5 μM, 80 mV), 92 nA/pF; in data set [6] (diclofenac 5 μM, 100 mV), 115 nA/pF. The “Chloride Current” value in data set [6] (diclofenac 20 μM, 0 mV) turned out to be 20 nA/pF; in data set [6] (diclofenac 20 μM, 20 mV), 34 nA/pF; in data set [6] (diclofenac 20 μM, 40 mV) it was 51 nA/pF; in data set [6] (diclofenac 20 μM, 60 mV), 69 nA/pF; in data set [6] (diclofenac 20 μM, 80 mV), 88 nA/pF; in data set [6] (diclofenac 20 μM, 100 mV), 109 nA/pF. In addition, the “Chloride Current” value in data set [6] (diclofenac 50 μM, 0 mV) stood at 19 nA/pF; in data set [6] (diclofenac 50 μM, 20 mV), 33 nA/pF; in data set [6] (diclofenac 50 μM, 40 mV) it was 48 nA/pF; in data set [6] (diclofenac 50 μM, 60 mV), 66 nA/pF; in data set [6] (diclofenac 50 μM, 80 mV), 85 nA/pF; in data set [6] (diclofenac 50 μM, 100 mV), 106 nA/pF.

(Values after patent publication US20050249675A1, “Mucin synthesis inhibitors” (priority 2003, published 2005).)
